From ChEMBL document CHEMBL1124905, “Synthesis of new (+-)-3,5-dihydroxypentyl nucleoside analogues from 1-amino-5-(benzyloxy)pentan-3-ol and their antiviral evaluation” (J Med Chem, 1990)
Active and inactive are the calls of the source. No cut-off for these calls is given here.

Columns and labels:
Human betaherpesvirus 5 = assay: Antiviral activity against HCMV was determined; No inhibition; type: functional, organism-based
MRC5 = assay: Concentration required for cytotoxicity of MRC5 cell line was determined; type: functional, cell-based; details: Homo sapiens
[1] = test system: Human immunodeficiency virus 1; assay: Antiviral activity against HIV-1 was determined; No inhibition; type: functional, organism-based
Human alphaherpesvirus 1 [2] = assay: Concentration required for suppression of the CPE (Cytopathic effect) of HSV-1; type: functional, organism-based; details: herpes simplex virus
[3] = Compound tested for toxic activity at 100 ug/mL; Not toxic; type: ADME
Human alphaherpesvirus 1 [4] = assay: Compound tested for inhibition of theCPE (Cytopathic effect) of HSV-1 at 12.5 ug/mL; type: functional, herpes simplex virus

SMILES: Nc1ncnc2c1ncn2CCC(O)CCO (configuration not stated)
- inhibition (Human betaherpesvirus 5): inactive
- Concentration (MRC5): 25 µg/mL
- inhibition [1]: inactive

SMILES: Nc1nc2c(ncn2COCCO)c(=O)[nH]1
- inhibition (Human betaherpesvirus 5): inactive
- inhibition [1]: inactive

SMILES: Nc1nc2c(ncn2COC(CO)CO)c(=O)[nH]1
- NA (Human betaherpesvirus 5): inactive
- NA [1]: inactive

SMILES: Nc1nc2c(ncn2CCCCO)c(=O)[nH]1
- inhibition (Human betaherpesvirus 5): inactive
- inhibition [1]: inactive

SMILES: Nc1nc(O)c2ncn(CCC(CO)CO)c2n1
- inhibition (Human betaherpesvirus 5): inactive
- inhibition [1]: inactive

SMILES: Nc1nc(O)c2ncn(CC(CO)CCO)c2n1 (configuration not stated)
- inhibition (Human betaherpesvirus 5): inactive
- inhibition [1]: inactive

SMILES: Nc1ncnc2c1ncn2C[C@@H](CO)OCP(=O)(O)O
- inhibition (Human betaherpesvirus 5): inactive
- inhibition [1]: inactive

SMILES: Nc1nc(O)c2ncn(CC[C@H](O)CCO)c2n1
- Concentration (Human alphaherpesvirus 1 [2]): 50 µg/mL
- Toxicity [3]: Non-toxic
- inhibition (Human betaherpesvirus 5): inactive
- inhibition [1]: inactive
- inhibition at 12.5 µg/mL (Human alphaherpesvirus 1 [4]): 50%

SMILES: Nc1ncnc2c1ncn2C[C@H](O)CO
- inhibition (Human betaherpesvirus 5): inactive
- inhibition [1]: inactive

SMILES: Cc1cn(CCC(O)CCO)c(=O)[nH]c1=O (configuration not stated)
- inhibition (Human betaherpesvirus 5): inactive
- inhibition [1]: inactive

SMILES: Nc1ccn(CCC(O)CCO)c(=O)n1 (configuration not stated)
- inhibition (Human betaherpesvirus 5): inactive
- inhibition [1]: inactive

SMILES: Nc1ncnc2c1ncn2CCOCP(=O)(O)O
- inhibition (Human betaherpesvirus 5): inactive
- inhibition [1]: inactive

SMILES: Nc1ncnc2c1ncn2C=C=CCO
- inhibition (Human betaherpesvirus 5): inactive
- inhibition [1]: inactive

SMILES: Nc1nc2c(ncn2CC[C@@H](O)CO)c(=O)[nH]1
- inhibition (Human betaherpesvirus 5): inactive
- inhibition [1]: inactive
